The text below walks through data of US7022481B2, “Methods of using glucan synthase pathway reporter genes to screen for antifungal compounds” (Rosetta Inpharmatics LLC, priority 2002, dated 2006).

Converted amounts (≈) assume the structure as drawn. Like-named read-outs stand apart in the source and are kept apart here.

Format in all cases: cell-based, S. cerevisiae
Assay [1] deals with YOL113W (SKM1), YNR066C, YLR121C (YPS3), YKL161C, and YAR050W (FLO1) GFP reporters. The assay is described as follows: liquid high-throughput like 96-well GFP reporter assay, glucan synthase pathway reporters. To be noted: serial 1 to 2 dilutions, ~24 hours at 30 degrees Celsius, five GS reporters. As for the experimental part: The five reporters selected were: YOL113W (SKM1), YNR066C, YLR121C (YPS3), YKL161C, and YAR050W (FLO1). Another reporter, YOR237W (HES1), was selected as a negative control.
1. Reporters transformed into wild-type S. Cerevisiae strain ABY12 were grown on solid Casamino Acids media plates.
2. The cultures from the solid media plates were used to inoculate 50 ml liquid cultures in Casamino Acids media. These liquid cultures were grown overnight at 30 degrees Celsius. The cultures were all grown to a final OD600˜=8 (Table V).
These cultures were then diluted in Casamino Acids media to and OD600=2.
3. The drug-like agents selected for the assay were the GS inhibitors Enfumafungin, Ascosteroside, and Dihydropapulacandin B; along with the Elongation Factor 2 (EF2) inhibitor Sordarin, to be used as a negative control. […]
5. After the 24 hour incubation the 96-well assay plates were imaged in a Molecular Dynamics Fluorimager SI to measure the fluorescence from the GFP reporters. […] Additionally, none of the compounds tested induced increased fluorescence from the reporter for inhibition of sterol biosynthesis, HES1 (FIG. 20). […] Of note here is the fact that the highest concentrations tested were all substantially greater than the measured IC50's for these compounds in the ABY12 strain (Table VI). […]

The subject of assay [2] is ABY12 strain. The assay is described as follows: growth inhibition (IC values) in the ABY12 strain. The source says:
3. The drug-like agents selected for the assay were the GS inhibitors Enfumafungin, Ascosteroside, and Dihydropapulacandin B; along with the Elongation Factor 2 (EF2) inhibitor Sordarin, to be used as a negative control. These four drugs were all added to the second column of each 96-well assay plate and serially diluted (1 to 2) into Casamino Acids media plus 2% DMSO in columns 3–12, so that column 2 of each plate will contain the highest concentration of each drug and column 12 will contain the lowest. The first column of each plate was used as a “no drug” control, containing only Casamino Acids media plus 2% DMSO. The concentrations for each drug that were added to the wells in column 2 are shown in Table VI (Maximum Concentration Tested) along with the rows of each plate they were added to (Table VI, Rows).
5. After the 24 hour incubation the 96-well assay plates were imaged in a Molecular Dynamics Fluorimager SI to measure the fluorescence from the GFP reporters. […] Additionally, none of the compounds tested induced increased fluorescence from the reporter for inhibition of sterol biosynthesis, HES1 (FIG. 20). […] Of note here is the fact that the highest concentrations tested were all substantially greater than the measured IC50's for these compounds in the ABY12 strain (Table VI). Therefore these strains are capable of reporting on inhibition of GS even at drug concentrations that inhibit cell growth. This is an important characteristic of this assay as the preferred method of high-throughput screening would be to perform the screens at one high concentration for every compound assayed. It has been previously shown that the HES1 reporter strain is capable of performing under such assay conditions in a 384-well formatted high-throughput screen of a combinatorial library (WO 00/58521, PCT published application).

Assay [3] deals with wild-type S288C strain. Kind of assay: microbe, parasite or virus in culture. How it is done: First, comprehensive gene expression profiles for S. cerevisiae grown in the presence of known inhibitors of glucan synthase were constructed. Enfumafungin and Ascosteroside were two known glucan synthase inhibitors used in the present invention. Prior to exposing the GRM to these two glucan synthase inhibitors, growth inhibition studies were performed on wild-type S288C strain in order to determine the appropriate concentrations for GRM profiling.

Assay [4] has as its system YOL113W (SKM1) reporter. The assay is described as follows: solid plate halo assay, reporter fluorescence. To be noted: 20 ul of 200 μg/ml and 1 mg/ml on paper disc, 23 hour incubation. As for the experimental part: (§1) This assay is meant to mimic assays where natural product producing strains would be either plated onto a lawn of our ABY12 reporter carrying strains, or an agar overlay containing the ABY12 reporter strain would be placed over a plate containing natural product producing strains, the purpose being identifying strains that are producing molecules that inhibit GS.
(§2) 1. The YOL113W (SKM1) reporter transformed into wild-type S. Cerevisiae strain ABY12 was grown on a solid Casamino Acids media plate.
(§3) 2. The culture from the solid media plate was used to inoculate a 50 ml liquid culture in Casamino Acids media. This liquid culture was grown overnight at 30 degrees Celsius. The culture was grown to a final OD600=10.5. This culture was then diluted in Casamino Acids media to an OD600=1, or 1×10^7 cells per milliliter. Five-hundred microliters of cell culture (5×10^6 cells) was then spread evenly over the surface of each of two 100 mm solid agar-Casamino-acids-media plates to form a lawn of the YOL113W (SKM1) reporter strain on each plate.
(§4) 3. Two 6 mm diameter blank paper discs (BECTON DICKINSON® #231039) were placed on top of the agar surface of each plate evenly spaced apart. […]
(§5) 4. After a 23 hour incubation the assay plates were imaged in a Molecular Dynamics Fluorimager SI to measure the fluorescence from the GFP reporters. […]

In assay [5] the test system is gene reporters in the GRM (promoter-GFP fusions). Kind of assay: Genome Reporter Matrix (GRM) reporter gene expression profiling.
Source text: Genome Reporter Matrix™ (GRM) technology was used to generate the gene expression profiles that the glucan synthase inhibition treatments induced in the yeast S. cerevisiae. The GRM was used to generate comprehensive gene expression profiles in the yeast S. cerevisiae. The GRM used in the present invention was a matrix of units comprising living S. cerevisiae cells, the cells in each unit containing one S. cerevisiae reporter fusions (GRM construct) representative of essentially every known gene and hypothetical open reading frame (ORF) of S. cerevisiae. The GRM constructs used in the present invention comprised a promoter, 5′ upstream untranslated region and usually the first four amino acids from one of each hypothetical ORF fused to a gene encoding the green fluorescent protein (GFP).
Solutions of test compounds were added directly to the solid agar growth media plates prior to addition of S. cerevisiae strains. The individual strains comprising the GRM were maintained as independent colonies (and cultures) in a 96-well format, in medium selecting for the URA2-containing reporter plasmid. Prior to each experiment, fresh dilutions of the reporter-containing strains were inoculated and grown overnight at 30° C. A Hamilton MicroLab 4200, a multichannel gantry robot equipped with a custom pin tool device capable of dispensing 50 nanoliter volumes in a highly reproducible manner, was used to array the matrix of S. cerevisiae strains in a uniform manner onto solid agar growth media at a density of 1536 reporter strains per 110 cm^2 plate. Fifty nanoliters of S. cerevisiae liquid cultures arrayed onto solid medium by the Hamilton Microlab 4200 results in colony-to-colony signal reproducibility of less than 5% variation. Once arrayed, each plate was grown at 30° C. for 18 hours or at 25° C. for 24 hours.
The level of fluorescence expressed from each reporter gene fusion was determined using a Molecular Dynamics Fluorimager SI. Custom image analysis software was used to quantitate the fluorescence of each colony in the images.
Assay [6] has as its system lawn of the YOL113W (SKM1) reporter strain (ABY12). Kind of assay: solid plate halo assay, growth of lawn. As to conditions: 20 ul of 200 μg/ml (low) and 20 ul of 1 mg/ml (high) on paper disc, 23 hour incubation. As for the experimental part:
as §1, §2, §3, §4, §5

Setting [7] is: Saccharomyces cerevisiae, read-out: IC50.
[8] abbreviates: growth inhibition, wild-type S288C strain.

Turning to `CO[C@H]1[C@@H](O)[C@H](O)[C@H](OC[C@@]23C[C@@H]4[C@H](C)CC[C@H]4[C@@]4(C=O)CC2C=C(C(C)C)[C@@]34C(=O)O)O[C@@H]1C` [Sordarin], the “fluorescence from the GFP reporters versus no drug controls” value in assay [1] was “None of the reporters, however, showed any increase in fluorescence”. Besides, in assay [2], the IC25 stood at 1.1 µg/mL (≈ 2.23 µM) and the IC75 is 2.5 µg/mL (≈ 5.08 µM). The IC50 in assay [2] (setting [7]) turned out to be 1.5 µg/mL (≈ 3.05 µM).
Turning to Dihydropapulacandin B, in assay [2], the IC25 stood at 3.7 µg/mL, the IC50 amounted to 4.4 µg/mL and the IC75 was found to be 5.3 µg/mL.
In the case of `CC(=O)O[C@@H]1C[C@]23C4=CC[C@@]5(C)[C@H](C(=O)O)[C@@](C)([C@H](C)C(C)C)CC[C@]5(C)[C@H]4CC[C@H]2[C@@](C)(COC3O)[C@H]1O[C@@H]1O[C@H](CO)[C@@H](O)[C@H](O)[C@H]1O` (stereo partly shown) [Enfumafungin], the IC50 in assay [3] (Saccharomyces cerevisiae) and in assay [2] (setting [7]) was 0.69 µg/mL (≈ 0.973 µM) in each case. The IC25 in assay [3] (setting [8]) and in assay [2] was 0.54 µg/mL (≈ 0.762 µM) in each case. Also, the IC75 in assay [3] (setting [8]) and in assay [2] was 0.9 µg/mL (≈ 1.27 µM) each time. In addition, in assay [3] (wild-type S288C strain), the “effectiveness in growth inhibition assays” value is “effective”. In addition, the entries for the “induction of the YOL113W (SKM1) reporter (fluorescence at edge of halo)” value in assay [4] and in assay [4] (listed as enfumafungin) were “significantly induced” and “upregulating SKM1 reporter”, respectively. In assay [5] (0.60 μg/ml and 0.75 μg/ml), the “growth inhibition of the GRM” value is on record as “too much growth inhibition”. Further, in assay [6], the “growth of the lawn around paper disc (halo)” value is reported as “inhibited the growth of the lawn”.
In assay [3] (setting [8]), `C=C(CC[C@H](C)[C@H]1C[C@@H](O)[C@@]2(C(=O)O)C3=C(CC[C@]12C)[C@@]1(C)CC[C@H](O[C@H]2O[C@H](CO)[C@@H](OC)[C@H](O)[C@H]2O)C(=C)[C@@H]1CC3)C(C)C` [Ascosteroside] gave an IC25 of 6.3 µg/mL (≈ 9.74 µM) and a half-inhibitory concentration (IC50) of 19 µg/mL (≈ 29.4 µM). Further, the “effectiveness in growth inhibition assays” value in assay [3] (wild-type S288C strain) is reported as “effective”. Further, in assay [5] (5 μg/ml in 1% DMSO, FIG. 9), the “expression response of reporter YKL161C” value was “highly up-regulated”. In addition, in assay [5] (lowest concentration (5.0 μg/ml), p<=0.01, of roughly 6,000 gene reporters in the GRM), the “number of gene reporters significantly up- or down-regulated” value was 318. In assay [2], this molecule displayed an IC25 of 6.3 µg/mL (≈ 9.74 µM) and an IC50 of 19 µg/mL (≈ 29.4 µM).
